According to US9371281B2, “Indole derivatives as inhibitors of histone deacetylase” (Pharmacyclics LLC, priority 2006, dated 2016):
Entries after “also recorded” stand apart in the source; their conditions may differ.

Tests used:
HDAC8 protein expression = assay: Western blot of HDAC8 after 24 hr treatment in Jurkat cells
Description: (§1) Western blot of HDAC8 & HDAC1 after 24 hr treatment in Jurkat cells were obtained.

J.RT3-T.5 [1] = assay: Apoptosis in T-cell lines, Annexin-V positive cells by flow cytometry; format: cell-based; settings: 3 Day dose
J.RT3-T.5 [2] = assay: Growth inhibition in T-cell lines (Table 6); format: cell-based; settings: 72 h, J.RT3-T.5 (TCR-β chain deficient), 3 Day dose
Jurkat [3] = assay: Apoptosis in T-cell lines, Annexin-V positive cells by flow cytometry; format: cell-based; settings: 3 Day dose
J.γ1 [4] = assay: Growth inhibition in T-cell lines (Table 6); format: cell-based; settings: 72 h, J.γ1 (Phospholipase C-γ1 deficient), 3 Day dose
HDAC1 levels = settings: Jurkat cells, 24 hr treatment, Western blot
Description: as §1

J.γ1 [5] = assay: Apoptosis in T-cell lines, Annexin-V positive cells by flow cytometry; format: cell-based; settings: 3 Day dose
P116 [6] = assay: Growth inhibition in T-cell lines (Table 6); format: cell-based; settings: 72 h, P116 (ZAP-70 deficient), 3 Day dose
Jurkat [7] = assay: Growth inhibition in T-cell lines (Table 6); format: cell-based; settings: Homo sapiens, 72 h, 3 Day dose
P116 [8] = assay: Apoptosis in T-cell lines, Annexin-V positive cells by flow cytometry; format: cell-based; settings: 3 Day dose
Jurkat cells = assay: Compound 23 induced apoptosis with Ca2+ effectors; format: cell-based
Description: […]. […] […].

[9] = test system: normal human peripheral blood mononuclear cells; assay: Cell proliferation, Alamar Blue assay (FIG. 9B); format: cell-based; settings: PBMCs, 24 hours
[10] = test system: IL-1b secretion in THP-1 monocyte cell line; settings: LPS, FIG. 12
[11] = test system: Cytochrome C translocation in Jurkat cells; assay: Cytochrome C translocation, Western blotting of mitochondrial and cytosolic fractions; format: cell-based; settings: 12 or 24 hours
HCT116 (colon) = assay: Apoptosis in solid tumor cells, Annexin V assay; format: cell-based, human
MCF-7 (breast) = assay: Apoptosis in solid tumor cells, Annexin V assay; format: cell-based
[12] = test system: IL-1b secretion in human PBMCs; assay: Inhibition of IL-1b secretion in human PBMCs; format: cell-based; settings: FIG. 11
Experimental: Lipopolysaccharide (LPS, 25 ng/ml) is then added to stimulate the cells for another 16 hour incubation period in 5% CO2. IL-1b cytokine levels in the conditioned medium are then quantitated using a sandwich ELISA kit. Compounds are screened at 10, 1, 0.1, 0.01 and 0.001 μM. These same concentrations are concurrently applied to a separate group of treated cells and evaluated for possible compound-induced cytotoxicity.

RKO (colon) = assay: Apoptosis in solid tumor cells, Annexin V assay; format: cell-based
PC3 (prostate) = assay: Apoptosis in solid tumor cells, Annexin V assay; format: cell-based
U87 (glioma) = assay: Apoptosis in solid tumor cells, Annexin V assay; format: cell-based
A549 (lung) = assay: Apoptosis in solid tumor cells, Annexin V assay; format: cell-based
Ovcar-3 (ovarian) = assay: Apoptosis in solid tumor cells, Annexin V assay; format: cell-based

CN(C)Cc1c(C(=O)NCCOc2ccc(C(=O)NO)cc2)oc2ccccc12 [PCI-24781, reference compound]
HDAC8 protein levels (HDAC8 protein expression): affected | Apoptosis at 0.125 μM (%) (J.RT3-T.5 [1]; J.RT3-T.5, 0.125 μM): 32% | GI50 (J.RT3-T.5 [2]): 140 nM | Apoptosis at 0.125 μM (%) (Jurkat [3]; 0.125 μM): 48% | GI50 (J.γ1 [4]): 140 nM | HDAC1 levels (HDAC1 levels): decreased | Apoptosis at 0.125 μM (%) (J.γ1 [5]; J.γ1, 0.125 μM): 18% | GI50 (P116 [6]): 190 nM | GI50 (Jurkat [7]): 130 nM | Apoptosis at 0.125 μM (%) (P116 [8]; P116, 0.125 μM): 76%

COc1ccc(Cn2ccc3ccc(C(=O)NO)cc32)cc1 [Compound 23, 1-(4-methoxy-phenylmethyl)-1H-indole-6-carboxylic acid hydroxyamide]
compound 23 induced apoptosis with Ca2+ effector thapsigargin (Jurkat cells; compound 23=5 μM, thapsigargin=0.2 μM): enhanced | compound 23 induced apoptosis with Ca2+ chelator BAPTA-AM (Jurkat cells; compound 23=10 μM, BAPTA 0.5 μM): inhibited | HDAC8 protein levels (HDAC8 protein expression): affected | Apoptosis at 5 μM (%) (J.RT3-T.5 [1]; J.RT3-T.5, 5 μM): 67% | effect on growth [9]: failed to inhibit the growth; also recorded: does not inhibit growth | IL-1b secretion [10]: reduction of IL-1b secretion | Cytochrome C translocation from mitochondria to cytosol [11]: Cytochrome C translocation from mitochondria to cytosol | Apoptosis at 5 μM (%) (Jurkat [3]; 5 μM): 43% | % apoptosis at 20 μM (Annexin V assay) (HCT116 (colon)): 3% | % apoptosis at 20 μM (Annexin V assay) (MCF-7 (breast)): 0% | IL-1b secretion [12]: inhibition of IL-1b secretion | % apoptosis at 20 μM (Annexin V assay) (RKO (colon)): 0% | % apoptosis at 20 μM (Annexin V assay) (PC3 (prostate)): 0% | Apoptosis at 5 μM (%) (J.γ1 [5]; J.γ1, 5 μM): 12% | % apoptosis at 20 μM (Annexin V assay) (U87 (glioma)): 0% | Apoptosis at 5 μM (%) (P116 [8]; P116, 5 μM): 82% | % apoptosis at 20 μM (Annexin V assay) (A549 (lung)): 0% | % apoptosis at 20 μM (Annexin V assay) (Ovcar-3 (ovarian)): 15%
